# Assay results as given in US8648086B2, “5,6-bicyclic heteroaryl-containing urea compounds as kinase inhibitors” (Ascepion Pharmaceuticals, Inc., priority 2009, dated 2014).
# Columns and labels:
# [1] = system: MDA-MB-231 human breast cancer cells; experiment: In vivo anti-tumor efficacy, MDA-MB-231 xenograft; settings: Breast cancer MDA-MB-231, nu/nu Balb/c mice, 100 mg/kg oral once per day, n = 2 × 3
# Description: Female (nu/nu) Balb/c athymic mice at 4-6 weeks of age were injected subcutaneously (s.c.) with MDA-MB-231 human breast cancer cells, A549 human non-small cell lung cancer cells, U87-MG human glioblastoma cells, PC-3 human prostate cancer cells, HT-29 human colon cancer, BEL-7404 human hepatocellular carcinoma, or MKN-45 human gastric cancer cells (ATCC, 5×10^6 cells suspended in 100 μl DMEM medium). Treatment was initiated after the tumor mass grown from s.c. implanted tumor cells reached a median volume of 200-400 mm^3. Mice were randomized into groups with three in each group for small-sample efficacy tests such that the median tumor volume is nearly equal among all groups. For large-sample efficacy tests, mice were randomized into groups with thirteen or fourteen in each group. Each group was treated either with compounds (dissolved in 2:1 mixture of PEG400 and 0.01N HCl (v/v)) or without compounds (vehicle only, 2:1 mixture of PEG400 and 0.01N HCl (v/v)) once per day at dose 12.5, 25, 50 or 100 mg/kg by oral gavage. Tumor volumes were assessed at least twice weekly by caliper measurement from the start of treatment. Tumor volume was calculated using the formula ½×L×W^2 (L: length of tumor's long axis, W: length of tumor's short axis). Treatment was applied for at least two weeks or until the tumor volume reaches a size of ˜2500 mm^3 or greater. Mice were humanly sacrificed after the experiment.
# The efficacy of compounds in reducing tumor growth was assessed by the index Tumor Growth Inhibition (TGI). TGI for a given treatment period was calculated using the group mean tumor volumes according to the formula: TGI=100×(VVehicle—group−VTreatment—group)÷VVehicle—group wherein VVehicle—group represents the mean tumor volume for the group treated with vehicle and VTreatment—group represents the mean tumor volume of the group treated with a compound.
# [2] = biological target: T1, VEGFR2 (Homo sapiens, UniProt P35968); experiment: VEGFR2 cell-based assay (phospho-VEGFR2 ELISA, transfected CHO cells); settings: compound at 100 nM, read-out: % VEGFR2 kinase activity remains
# T1 construct: expressed in transfected cells; host or cells: CHO cells, pcDNA3.1 plasmid
# T1 sequence (P35968 20-1356, species assumed): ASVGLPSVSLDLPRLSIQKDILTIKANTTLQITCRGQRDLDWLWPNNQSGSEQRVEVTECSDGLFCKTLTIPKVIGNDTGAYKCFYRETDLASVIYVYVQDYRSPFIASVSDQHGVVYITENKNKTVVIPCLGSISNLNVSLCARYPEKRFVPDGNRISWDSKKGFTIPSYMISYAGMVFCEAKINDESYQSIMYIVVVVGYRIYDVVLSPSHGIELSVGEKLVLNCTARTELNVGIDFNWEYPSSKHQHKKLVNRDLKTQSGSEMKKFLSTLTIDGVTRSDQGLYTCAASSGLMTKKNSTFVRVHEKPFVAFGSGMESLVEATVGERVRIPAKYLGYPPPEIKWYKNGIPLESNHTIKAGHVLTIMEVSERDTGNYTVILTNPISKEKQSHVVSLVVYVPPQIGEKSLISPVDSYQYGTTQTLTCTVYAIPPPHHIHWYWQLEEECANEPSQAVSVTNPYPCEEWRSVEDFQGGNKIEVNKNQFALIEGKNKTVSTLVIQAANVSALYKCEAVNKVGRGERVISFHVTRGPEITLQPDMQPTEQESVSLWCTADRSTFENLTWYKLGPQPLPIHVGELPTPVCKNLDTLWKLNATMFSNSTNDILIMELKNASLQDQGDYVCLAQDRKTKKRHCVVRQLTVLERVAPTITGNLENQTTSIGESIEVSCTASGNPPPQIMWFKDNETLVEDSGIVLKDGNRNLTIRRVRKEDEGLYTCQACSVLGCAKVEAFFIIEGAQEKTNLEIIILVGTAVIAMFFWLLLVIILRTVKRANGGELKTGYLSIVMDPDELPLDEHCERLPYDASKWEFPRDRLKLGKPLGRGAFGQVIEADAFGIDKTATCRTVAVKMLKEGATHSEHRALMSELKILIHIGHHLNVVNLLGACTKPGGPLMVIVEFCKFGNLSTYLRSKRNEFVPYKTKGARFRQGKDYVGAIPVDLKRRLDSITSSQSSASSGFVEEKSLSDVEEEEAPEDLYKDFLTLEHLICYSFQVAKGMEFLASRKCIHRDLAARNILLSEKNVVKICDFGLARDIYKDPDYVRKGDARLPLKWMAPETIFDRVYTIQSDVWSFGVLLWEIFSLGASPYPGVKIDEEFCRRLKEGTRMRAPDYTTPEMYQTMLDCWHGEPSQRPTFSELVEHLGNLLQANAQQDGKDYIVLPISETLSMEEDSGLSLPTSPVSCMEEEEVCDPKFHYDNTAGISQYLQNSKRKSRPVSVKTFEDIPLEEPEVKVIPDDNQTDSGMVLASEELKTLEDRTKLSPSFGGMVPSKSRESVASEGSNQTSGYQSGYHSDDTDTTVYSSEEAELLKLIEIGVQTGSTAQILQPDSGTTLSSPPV
# Description: A standard cell-based assay for VEGFR2 kinase activity can be used to test compounds of this invention and to identify VEGFR2 antagonists.
# Specifically, a compound to be tested was first dissolved in DMSO to a concentration of 10 mM and stored at −20° C. The activity of VEGFR2 in cells depends on the phosphorylation level at its intracellular domain induced by the ligand. In order to express VEGFR2 in the cells, full length VEGFR2 sequence was cloned into PC-DNA3.1 vector, the plasmid was then transfected into CHO cells. After 48 hours, the expression of VEGFR2 in transfected CHO cells was confirmed by regular western blotting.
# To screen the compounds of this invention, the ELISA kit (R&D Systems) was used. One day before the screening, CHO cells transfected with full length VEGFR2 plasmid were grown in DMEM medium without the presence of serum. On the day of screening, various concentrations of compounds (From 0.5 nM to 500 nM) were added into DMEM medium. Two hours later, 20% of FBS (Fetal Bovine Serum) was added into the medium to stimulate the production of phosphor-VEGFR2. Cell lysate from approximately 5×10^5 transfected CHO cells were reacted with anti-phosphor-VEGFR2 or anti-total VEGFR2 antibody in 96 well plates. In the presence of detection antibody, the phosphor-VEGFR2 or total VEGFR2 were detected with Streptavidin-HRP (R&D Systems) followed by chemiluminescence detection.
# [3] = biological target: T2, c-Met (Homo sapiens, UniProt P08581); experiment: c-Met cell-based assay (phospho-c-Met ELISA, A549 cells); settings: compound at 100 nM
# T2 construct: endogenous in cells; host or cells: A549 cells
# T2 sequence (P08581 25-1390): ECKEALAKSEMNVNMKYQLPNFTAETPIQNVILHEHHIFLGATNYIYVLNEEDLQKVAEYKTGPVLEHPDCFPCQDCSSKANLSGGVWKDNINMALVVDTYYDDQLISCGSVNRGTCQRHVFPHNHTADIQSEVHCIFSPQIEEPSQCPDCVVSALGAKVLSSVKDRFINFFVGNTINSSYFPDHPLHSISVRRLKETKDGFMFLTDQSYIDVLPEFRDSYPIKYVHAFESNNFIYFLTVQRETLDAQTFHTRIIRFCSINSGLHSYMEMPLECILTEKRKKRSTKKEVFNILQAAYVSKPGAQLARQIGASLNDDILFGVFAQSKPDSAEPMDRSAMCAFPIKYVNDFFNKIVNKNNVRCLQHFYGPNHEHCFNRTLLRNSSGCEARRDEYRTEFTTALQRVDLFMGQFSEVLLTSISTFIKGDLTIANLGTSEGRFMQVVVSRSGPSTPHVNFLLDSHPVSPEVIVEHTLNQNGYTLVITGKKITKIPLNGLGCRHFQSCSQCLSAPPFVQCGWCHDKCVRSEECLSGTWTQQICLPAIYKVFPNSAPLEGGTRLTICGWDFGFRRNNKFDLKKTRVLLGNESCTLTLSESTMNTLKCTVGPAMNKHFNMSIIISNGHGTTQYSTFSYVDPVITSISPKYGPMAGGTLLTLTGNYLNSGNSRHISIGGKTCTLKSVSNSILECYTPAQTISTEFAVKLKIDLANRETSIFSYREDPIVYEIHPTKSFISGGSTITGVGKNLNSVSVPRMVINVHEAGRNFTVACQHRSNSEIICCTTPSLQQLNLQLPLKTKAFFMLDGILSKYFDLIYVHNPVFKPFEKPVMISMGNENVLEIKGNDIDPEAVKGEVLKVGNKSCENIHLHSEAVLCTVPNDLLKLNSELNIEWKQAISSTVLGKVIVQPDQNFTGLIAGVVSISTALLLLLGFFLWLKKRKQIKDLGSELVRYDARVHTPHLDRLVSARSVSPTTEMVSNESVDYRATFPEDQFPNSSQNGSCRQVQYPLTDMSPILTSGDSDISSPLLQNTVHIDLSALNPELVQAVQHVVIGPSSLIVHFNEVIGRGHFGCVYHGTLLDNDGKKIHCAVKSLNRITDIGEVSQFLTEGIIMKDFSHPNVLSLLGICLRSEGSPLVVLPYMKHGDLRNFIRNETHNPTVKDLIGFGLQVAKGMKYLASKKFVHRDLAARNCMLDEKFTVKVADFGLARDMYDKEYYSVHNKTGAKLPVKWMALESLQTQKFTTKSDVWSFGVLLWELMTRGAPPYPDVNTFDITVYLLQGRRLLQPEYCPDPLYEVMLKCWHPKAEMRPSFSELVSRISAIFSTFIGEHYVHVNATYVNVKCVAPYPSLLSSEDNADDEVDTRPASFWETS
# Description: A procedure for standard cell-based assay for c-Met kinase activity can be used to test compounds of this invention for their inhibitory effect on this kinase and to identify c-Met antagonists.
# Specifically, a compound to be tested was first dissolved in DMSO to a concentration of 10 mM and stored at −20° C. The activity of c-Met in cells depends on the phosphorylation level at its intracellular domain induced by its ligand, Hepatocyte growth factor (HGF). In order to induce the cells to produce phosphate c-Met, paracrine HGF-dependent NSCLC (None Small Cell Lung Cancer) A549 cells were grown in DMEM with 10% FBS.
# To screen compounds of this invention for their inhibitory effect on c-Met kinase, the ELISA kit (R&D Systems) was used. One day before screening procedure, A549 cells were grown in DMEM without the presence of serum. On the day of screening procedure, various concentrations of compounds (from 0.5 nM to 500 nM) were added into the culture medium. Two hours later, 20% of FBS (Fetal Bovine Serum) was added into the medium to stimulate the expression of phosphor-c-Met. After 20 minutes, cell lysate from approximately 5×10^5 A549 cells were reacted with anti-phosphor-c-Met or anti total c-Met antibody in 96 well plates. In the presence of detection antibody, the phosphor-c-Met or total c-Met can be detected with Streptavidin-HRP (R&D Systems) followed by chemiluminescence detection.
# [4] = biological target: T3, PDGFRβ (Homo sapiens, UniProt P09619); experiment: PDGFRβ cell-based assay (phospho-PDGFRβ ELISA, transfected CHO cells); settings: compound at 100 nM, read-out: % PDGFRβ kinase activity remains
# T3 construct: expressed in transfected cells; host or cells: CHO cells, pcDNA3.1 plasmid
# T3 sequence (P09619 33-1106, species assumed): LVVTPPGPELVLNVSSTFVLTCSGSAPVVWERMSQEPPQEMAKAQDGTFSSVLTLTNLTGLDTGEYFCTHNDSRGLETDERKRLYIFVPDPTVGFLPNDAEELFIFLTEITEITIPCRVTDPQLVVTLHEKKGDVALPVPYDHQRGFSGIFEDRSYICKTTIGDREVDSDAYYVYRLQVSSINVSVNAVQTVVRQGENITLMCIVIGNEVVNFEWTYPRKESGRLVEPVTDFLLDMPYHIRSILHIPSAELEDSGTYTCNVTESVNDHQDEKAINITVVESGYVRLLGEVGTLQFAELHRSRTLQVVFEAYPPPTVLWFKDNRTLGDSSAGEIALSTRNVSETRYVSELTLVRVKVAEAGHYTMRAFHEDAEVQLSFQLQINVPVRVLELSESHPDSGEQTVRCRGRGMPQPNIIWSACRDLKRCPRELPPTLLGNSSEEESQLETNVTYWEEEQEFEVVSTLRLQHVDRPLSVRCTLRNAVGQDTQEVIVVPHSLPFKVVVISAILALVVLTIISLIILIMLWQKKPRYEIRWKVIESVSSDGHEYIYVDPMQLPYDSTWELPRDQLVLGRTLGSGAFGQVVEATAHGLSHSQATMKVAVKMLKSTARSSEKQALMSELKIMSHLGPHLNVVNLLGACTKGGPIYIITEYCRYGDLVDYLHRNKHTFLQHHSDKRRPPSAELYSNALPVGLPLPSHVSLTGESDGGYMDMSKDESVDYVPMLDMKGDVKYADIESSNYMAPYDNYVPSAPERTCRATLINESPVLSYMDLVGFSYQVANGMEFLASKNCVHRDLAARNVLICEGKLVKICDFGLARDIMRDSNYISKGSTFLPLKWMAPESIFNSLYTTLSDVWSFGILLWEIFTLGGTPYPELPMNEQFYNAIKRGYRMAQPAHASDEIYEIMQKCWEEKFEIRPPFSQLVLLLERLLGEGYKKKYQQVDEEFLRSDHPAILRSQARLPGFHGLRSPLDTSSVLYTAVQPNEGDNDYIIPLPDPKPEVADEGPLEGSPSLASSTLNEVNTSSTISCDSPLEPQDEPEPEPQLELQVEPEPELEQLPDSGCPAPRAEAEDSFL
# Description: A standard cell-based assay for PDGFRβ kinase activity can be used to test a compound of this invention and to identify PDGFRβ antagonists.
# Specifically, a compound to be tested was first dissolved in DMSO to a concentration of 10 mM and stored at −20° C. The activity of PDGFRβ in cells depends on the phosphorylation level of its intracellular domain induced by the ligand. In order to express PDGFRβ in the cell, full length PDGFRβ sequence was cloned into PC-DNA3.1 vector. The plasmid was then transfected into CHO cells. After 48 hours following the transfection, the expression of PDGFRβ in transfected CHO cells was confirmed by regular western blotting.
# To screen the compound of this invention, the ELISA kit (R&D Systems, Minneapolis, Minn., USA) was used. One day before the screening, CHO cells transfected with full length PDGFRβ plasmid were grown in DMEM medium without the presence of serum. On the day of screening, various concentrations of compounds (from 0.5 nM to 500 nM) were added into DMEM medium. Two hours later, 20% of FBS (Fetal Bovine Serum) was added into the medium to stimulate the expression of phosphor-PDGFRβ. Cell lysate from approximately 5×10^5 transfected CHO cells were reacted with anti-phosphor-PDGFRβ or anti-total PDGFRβ antibody in 96 well plates, in the presence of detection antibody, the phosphor-PDGFRβ or total PDGFRβ were detected with Streptavidin-HRP (R&D Systems), followed by chemiluminescent detection.
SMILES,Tumor Growth Inhibition (TGI) [1],remaining activity at 0.1 µM [2] [%],% c-Met kinase activity remains [3],remaining activity at 0.1 µM [4] [%]
"COc1ccc(Cl)cc1NC(=O)Nc1cccc2c1CCN2Cc1ccnc2[nH]ccc12.Cl [Example 1, 1-(2-Methoxyl-5-chlorophenyl)-3-[1-(1H-pyrrolo[2,3-b]pyridin-4-ylmethyl)-2,3-dihydro-1H-indol-4-yl]urea hydrochloride]",A (the TGI is greater or equal to 50%),< 70,A (the percentage of kinase activity remains is below 70%),
"Cl.O=C(Nc1ccc(F)cc1)Nc1cccc2c1ccn2Cc1ccnc2[nH]ccc12 [Example 36, 1-(4-Fluorophenyl)-3-[1-(1H-pyrrolo[2,3-b]pyridin-4-ylmethyl)-1H-indol-4-yl]urea hydrochloride]",,< 70,A (the percentage of kinase activity remains is below 70%),≥ 70
"Cl.O=C(Nc1ccc(OC(F)(F)F)cc1)Nc1cccc2c1ccn2Cc1c[nH]c2ncccc12 [Example 22, 1-(4-Trifluoromethoxyphenyl)-3-[1-(1H-pyrrolo[2,3-b]pyridin-3-ylmethyl)-1H-indol-4-yl]urea hydrochloride]",,≥ 70,A (the percentage of kinase activity remains is below 70%),≥ 70
"Cl.O=C(Nc1cc(Cl)ccc1F)Nc1cccc2c1ccn2Cc1c[nH]c2ncccc12 [Example 29, 1-(2-Fluoro-5-chlorophenyl)-3-[1-(1H-pyrrolo[2,3-b]pyridin-3-ylmethyl)-1H-indol-4-yl]urea hydrochloride]",,< 70,B (the percentage is greater or equal to 70%),≥ 70
"Cl.O=C(Nc1ccc(C(F)(F)F)cc1)Nc1cccc2c1ccn2Cc1ccnc2[nH]ccc12 [Example 52, 1-(4-Trifluoromethylphenyl)-3-[1-(1H-pyrrolo[2,3-b]pyridin-4-ylmethyl)-1H-indol-4-yl]urea hydrochloride]",,< 70,B (the percentage is greater or equal to 70%),≥ 70
"COc1cccc(NC(=O)Nc2cccc3c2ccn3Cc2ccnc3[nH]ccc23)c1.Cl [Example 47, 1-(3-Methoxyphenyl)-3-[1-(1H-pyrrolo[2,3-b]pyridin-4-ylmethyl)-1H-indol-4-yl]urea hydrochloride]",,< 70,A (the percentage of kinase activity remains is below 70%),≥ 70
"Cl.O=C(Nc1cccc(Br)c1)Nc1cccc2c1ccn2Cc1c[nH]c2ncccc12 [Example 12, 1-(3-Bromophenyl)-3-[1-(1H-pyrrolo[2,3-b]pyridin-3-ylmethyl)-1H-indol-4-yl]urea hydrochloride]",,< 70,A (the percentage of kinase activity remains is below 70%),≥ 70
"Cl.O=C(Nc1ccccc1)Nc1cccc2c1ccn2Cc1c[nH]c2ncccc12 [Example 4, 1-Phenyl-3-[1-(1H-pyrrolo[2,3-b]pyridin-3-ylmethyl)-1H-indol-4-yl]urea hydrochloride]",,≥ 70,B (the percentage is greater or equal to 70%),≥ 70
"Cl.O=C(Nc1cccc(F)c1)Nc1cccc2c1ccn2Cc1ccnc2[nH]ccc12 [Example 35, 1-(3-Fluorophenyl)-3-[1-(1H-pyrrolo[2,3-b]pyridin-4-ylmethyl)-1H-indol-4-yl]urea hydrochloride]",,< 70,A (the percentage of kinase activity remains is below 70%),≥ 70
